In patent publication US20090215742A1, “AMIDE […]” (PFIZER, INC., priority 2005, published 2009):

Biological target: T1, HSP-90 (Homo sapiens, UniProt P07900)
T1 construct: fused on or other part: 6-His tag at the C-terminus
Experiment: HSP-90 SPA (scintillation proximity assay) competition binding assay, displacement of tritiated propyl-Geldanamycin
Details: for inhibition at 1 µM: read-out: % inhibition @ 1 μM; for inhibition at 10 µM: read-out: % inhibition @ 10 μM
Procedure: Compounds of the present invention were evaluated for potency against HSP-90 using a SPA (scintillation proximity assay) competition binding assay. Briefly, either full length or N-terminal HSP-90 that contains a 6-His tag on its C-terminus binds to copper on Yttrium-silicate scintillant beads via the His-tag. Tritiated propyl-Geldanamycin (pGA), whose structure is shown below, is an analog of a natural inhibitor of HSP-90 called Geldanamycin.
Tritiated pGA, which contains a tritiated propyl-amine group added at the #17 position, binds HSP-90 and brings the isotope into proximity with the beads. […] The beta signal emitted from the isotope excites the scintillant, which creates a measurable signal. As competitive compounds are added to the assay mixture, they compete with bound tritiated pGA at the ATP-binding site on the N-terminal of HSP-90. When a compound displaces the labeled pGA, the signal is reduced (the beta-particles are no longer in proximity with the bead). This reduction in signal is used to quantify the extent to which the inhibitor/compound is competitive with pGA.
Typical reaction solutions contained 30 nM HSP-90 and 200 nM ^3H-pGA in binding buffer (100 mM Hepes, pH 7.5 and 150 mM KCl). […] Inhibitors were added to the HSP-90/^3H-pGA solutions at eleven different concentrations for Ki determinations. […] To determine percent inhibition, the compound was tested at 1 and 10 μM. The final DMSO in the samples was 4%. Copper-Ysi beads (Amersham, #RPNQ0096) that have been diluted in binding buffer were added to each well to give a final concentration of 100 μg/well. The plates were sealed, covered with a foil-covered lid and shaken for 30 minutes at room temperature. The beads were allowed to settle for 30 minutes after which the plates were counted using a Packard TopCount NXT instrument. This procedure has also been adapted for medium throughput using a Beckman Biomek FX. Samples were run in duplicate and on two separate days to assure an accurate value of Ki.
For Ki determinations, the corrected cpm's (actual cpm's minus background) were plotted vs. inhibitor concentration using GraphPad Prism software. […] The IC50 was then used to calculate the Ki by using the Cheng-Prusoff equation: […]
This is normally true when the observed IC50 is […] the HSP-90 concentration. For a tight binding inhibitor, the following equation can be applied: […]
EL and ELo are the radioligand-HSP-90 complexes in the presence and absence of inhibitor, respectively. EL/ELo represents the fractional signal in the presence of inhibitor. Io, Eo, and Lo are the inhibitor, HSP-90, and radioligand concentrations, respectively.

Compound	inhibition at 1 µM [%]	inhibition at 10 µM [%]
O=C(c1ccc(O)cc1O)N1CCC(c2cccc(Cl)c2)C1 (stereo not shown) [Example 96, 4-{[3-(3-chlorophenyl)pyrrolidin-1-yl]carbonyl}benzene-1,3-diol]	20.8	67.6
O=C(c1ccc(O)cc1O)N1CC=CCC1 [Example 97, 4-(3,6-dihydropyridin-1(2H)-ylcarbonyl)benzene-1,3-diol]	62.7	82.6
Cc1noc(C)c1COCC1COCCN(C(=O)c2ccc(O)cc2O)C1 (stereo not shown) [Example 98, 4-[(6-{[(3,5-dimethylisoxazol-4-yl)methoxy]methyl}-1,4-oxazepan-4-yl)carbonyl]benzene-1,3-diol]	26.7	65.9
O=C(c1ccc(O)cc1O)N1CCOCC(Cc2ccc(Cl)c(Cl)c2)C1 (stereo not shown) [Example 99, 4-{[6-(3,4-dichlorobenzyl)-1,4-oxazepan-4-yl]carbonyl}benzene-1,3-diol]	52.2	80
Cc1ccccc1C1(O)CCN(C(=O)c2ccc(O)cc2O)C1 (stereo not shown) [Example 100, 4-{[3-hydroxy-3-(2-methylphenyl)pyrrolidin-1-yl]carbonyl}benzene-1,3-diol]	35.9	79.1
Cc1cccc(N2CCN(C(=O)c3ccc(O)cc3O)CC2)n1 [Example 101, 4-{[4-(6-methylpyridin-2-yl)piperazin-1-yl]carbonyl}benzene-1,3-diol]	21.8	70.2
COc1ccc(CCN(C)C(=O)c2ccc(O)cc2O)cc1OC [Example 102, N-[2-(3,4-dimethoxyphenyl)ethyl]-2,4-dihydroxy-N-methylbenzamide]	9.8	54.4
O=C(c1ccc(O)cc1O)N1CCc2ccccc2C1c1ccccc1 (stereo not shown) [Example 103, (2,4-Dihydroxy-phenyl)-(1-phenyl-3,4-dihydro-1H-isoquinolin-2-yl)-methanone]	64.5	87.8
Cc1nc2c(s1)CN(C(=O)c1ccc(O)cc1O)CC2 [Example 104, 4-[(2-methyl-6,7-dihydro[1,3]thiazolo[5,4-c]pyridin-5(4H)-yl)carbonyl]benzene-1,3-diol]	33.9	74.3
CN(Cc1ccc(F)cc1)C(=O)c1ccc(O)cc1O [Example 105, N-(4-fluorobenzyl)-2,4-dihydroxy-N-methylbenzamide]	30.2	69.3
CN(Cc1ccc(Cl)cc1)C(=O)c1ccc(O)cc1O [Example 106, N-(4-chlorobenzyl)-2,4-dihydroxy-N-methylbenzamide]	26.9	72.4
CN(Cc1ccc(Oc2ccccc2)cc1)C(=O)c1ccc(O)cc1O [Example 107, 2,4-dihydroxy-N-methyl-N-(4-phenoxybenzyl)benzamide]	51.1	83.4
CN(CCc1ccccc1)C(=O)c1ccc(O)cc1O [Example 108, 2,4-dihydroxy-N-methyl-N-(2-phenylethyl)benzamide]	40.5	83.1
O=C(c1ccc(O)cc1O)N1CCc2ccccc2C1 [Example 109, 4-(3,4-dihydroisoquinolin-2(1H)-ylcarbonyl)benzene-1,3-diol]	68	87.2
O=C(c1ccc(O)cc1O)N1CCOC(COc2cccc(Cl)c2)C1 (stereo not shown) [Example 110, 4-({2-[(3-chlorophenoxy)methyl]morpholin-4-yl}carbonyl)benzene-1,3-diol]	55.3	82.8
O=C(c1ccc(O)cc1O)N1CCN(c2cnccn2)CC1 [Example 111, 4-[(4-pyrazin-2-ylpiperazin-1-yl)carbonyl]benzene-1,3-diol]	5.9	64.2
O=C(c1ccc(O)cc1O)N1CCOC(COc2ccccc2)C1 (stereo not shown) [Example 112, 4-{[2-(phenoxymethyl)morpholin-4-yl]carbonyl}benzene-1,3-diol]	48.1	80.5
CN(Cc1ccccc1Cl)C(=O)c1ccc(O)cc1O [Example 113, N-(2-chlorobenzyl)-2,4-dihydroxy-N-methylbenzamide]	53	81.9
O=C(c1ccc(O)cc1O)N1CCOC(COc2cc(F)cc(F)c2)C1 (stereo not shown) [Example 114, 4-({2-[(3,5-difluorophenoxy)methyl]morpholin-4-yl}carbonyl)benzene-1,3-diol]	60.2	83.2
O=C(c1ccc(O)cc1O)N1CCOC(COc2ccc(F)cc2Cl)C1 (stereo not shown) [Example 115, 4-({2-[(2-chloro-4-fluorophenoxy)methyl]morpholin-4-yl}carbonyl)benzene-1,3-diol]	60.3	83.7
COc1ccc(Cc2nnc3n2CCN(C(=O)c2ccc(O)cc2O)CC3)cc1 [Example 116, 4-{[3-(4-methoxybenzyl)-5,6,8,9-tetrahydro-7H-[1,2,4]triazolo[4,3-d][1,4]diazepin-7-yl]carbonyl}benzene-1,3-diol]	5	62.1
O=C(c1ccc(O)cc1O)N1CCSC1 [Example 117, 4-(1,3-thiazolidin-3-ylcarbonyl)benzene-1,3-diol]	65	89.2
COc1ccccc1-c1nnc(CN(C)C(=O)c2ccc(O)cc2O)o1 [Example 118, 2,4-Dihydroxy-N-{[5-(2-methoxyphenyl)-1,3,4-oxadiazol-2-yl]methyl}-N-methylbenzamide]	15.4	57
CN(Cc1nnc(-c2ccc(F)cc2)o1)C(=O)c1ccc(O)cc1O [Example 119, N-{[5-(4-fluorophenyl)-1,3,4-oxadiazol-2-yl]methyl}-2,4-dihydroxy-N-benzamide]	50.9	82.8
O=C(c1ccc(O)cc1O)N1CCOCC2(CC(c3ccc(F)cc3)=NO2)C1 (stereo not shown) [Example 120, 4-{[3-(4-fluorophenyl)-1,7-dioxa-2,10-diazaspiro[4.6]undec-2-en-10-yl]carbonyl}benzene-1,3-diol]	76.2	89.4
CN(Cc1nnc(-c2cccc(C#N)c2)o1)C(=O)c1ccc(O)cc1O [Example 121, N-{[5-(3-cyanophenyl)-1,3,4-oxadiazol-2-yl]methyl}-2,4-dihydroxy-N-methylbenzamide]	10.6	64.6
O=C(c1ccc(O)cc1O)N1CCOCC(COCc2c(Cl)cccc2Cl)C1 (stereo not shown) [Example 122, 4-[(6-{[(2,6-dichlorobenzyl)oxy]methyl}-1,4-oxazepan-4-yl)carbonyl]benzene-1,3-diol]	48.2	79
CN(Cc1nc2ccccc2o1)C(=O)c1ccc(O)cc1O [Example 123, N-(1,3-benzoxazol-2-ylmethyl)-2,4-dihydroxy-N-methylbenzamide]	25.5	65.6
O=C(c1ccc(O)cc1O)N1CCN(c2cnccn2)CC(CO)C1 (stereo not shown) [Example 124, 4-{[6-(hydroxymethyl)-4-pyrazin-2-yl-1,4-diazepan-1-yl]carbonyl}benzene-1,3-diol]	-4.8	18.1
